Measured values taken from the supplement of paper PMC13380429.

Columns and labels:
[1] = test system: A549-ACE2 infected with SARS-CoV-2; test: cell count relative to DMSO; higher = less toxic; conditions: 24 h
Caco-2 [2] = test: cell viability relative to DMSO; higher = less toxic; conditions: 72 h
Calu-3 [3] = test: as above; conditions: 72 h
HepG2 [4] = test: as above; conditions: 72 h
U2OS [5] = test: as above; conditions: 72 h
Vero E6 [6] = test: as above; conditions: 72 h
[7] = test system: A549-ACE2 infected with SARS-CoV-2; test: SARS-CoV-2 infection rate relative to DMSO; higher = more infection; conditions: 24 h
A549-ACE2 = test: drug-induced phospholipidosis relative to tamoxifen; higher = more phospholipidosis
[8] = test system: A549-ACE2 infected with SARS-CoV-2; test: morphology score (similarity to uninfected cells); higher = more like uninfected cells; conditions: 24 h
Calu-3 [9] = test: relative viability EC50 (midpoint between 100% and the lowest measured viability); higher = less toxic; conditions: 72 h
HepG2 [10] = test: as above; conditions: 72 h
Vero E6 [11] = test: as above; conditions: 72 h
Caco-2 [12] = test: drug sensitivity score (DSS) for viability; higher = more toxic; extreme values may be limits of the assay; conditions: 72 h
Calu-3 [13] = test: as above; conditions: 72 h
HepG2 [14] = test: as above; conditions: 72 h
U2OS [15] = test: as above; conditions: 72 h
Vero E6 [16] = test: as above; conditions: 72 h
Caco-2 [17] = test: relative viability EC50 (midpoint between 100% and the lowest measured viability); higher = less toxic; conditions: 72 h
U2OS [18] = test: as above; conditions: 72 h

Cc1c(-c2ccc(O)cc2)n(Cc2ccc(OCCN3CCCCCC3)cc2)c2ccc(O)cc12 [bazedoxifene]
Conditions	SARS-CoV-2 infection rate, [7] [%]	cell count, [1] [%]	cell viability, Caco-2 [2] [%]	cell viability, Calu-3 [3] [%]	cell viability, HepG2 [4] [%]	cell viability, U2OS [5] [%]	cell viability, Vero E6 [6] [%]	morphology score, [8]
1 nM	–	–	104	96.3	95.2	104	102	–
10 nM	–	–	95.3	91.5	106	101	105	–
0.1 µM	97	99	–	–	–	–	–	0.02
100 nM	–	–	95.4	105	95.3	104	98.3	–
0.3 µM	103	105	–	–	–	–	–	0.05
1 µM	85	103	–	–	–	–	–	0.36
1000 nM	–	–	91.5	97.6	98.1	99.2	100	–
3 µM	22	122	–	–	–	–	–	0.83
10000 nM	–	–	60.4	11.6	12.3	53	18.1	–

drug-induced phospholipidosis [%], A549-ACE2
Conditions	0.3 µM	0.833333 µM	3.33333 µM	6.66667 µM	10 µM
24 h	0.63	6.49	23.7	37.6	4.23
48 h	0.36	3.68	24.9	44.4	36.7
72 h	0.978	3.09	19.4	39.6	52.6

Conditions	drug sensitivity score	relative viability EC50 [µM]
Caco-2 [12]	3.3	–
Calu-3 [9]	–	2.97
Calu-3 [13]	5.2	–
HepG2 [10]	–	3.01
HepG2 [14]	5.1	–
U2OS [15]	2.5	–
Vero E6 [11]	–	3.18
Vero E6 [16]	4.5	–

CC(=O)Nc1ccc(S(=O)(=O)Nc2ccc([N+](=O)[O-])cc2)cc1 [sulfanitran]
cell viability [%]
Conditions	Caco-2 [2]	Calu-3 [3]	HepG2 [4]	U2OS [5]	Vero E6 [6]
1 nM	99	96.5	104	97.6	101
10 nM	96.6	105	94.5	106	94.5
100 nM	97.9	103	105	98.7	97
1000 nM	92.9	89	95	105	97.1
10000 nM	99.1	98.9	109	102	104

Conditions	drug sensitivity score	relative viability EC50 [µM]
Caco-2 [12]	0	–
Caco-2 [17]	–	> 10
Calu-3 [9]	–	> 10
Calu-3 [13]	0	–
HepG2 [10]	–	> 10
HepG2 [14]	0	–
U2OS [15]	0	–
U2OS [18]	–	> 10
Vero E6 [11]	–	> 10
Vero E6 [16]	0	–

O[C@H]1[C@H]2[C@H](O)CCCN2C[C@H]1O [swainsonine]
cell viability [%]
Conditions	Caco-2 [2]	Calu-3 [3]	HepG2 [4]	U2OS [5]	Vero E6 [6]
1 nM	79	97.5	110	95.8	112
10 nM	95.1	104	96.4	103	97
100 nM	86.8	91.1	90.9	98.5	97.5
1000 nM	81.5	88.7	88.9	105	83.7
10000 nM	81.7	87.1	94.2	92.3	88.1

Conditions	drug sensitivity score	relative viability EC50 [µM]
Caco-2 [12]	0	–
Caco-2 [17]	–	> 10
Calu-3 [9]	–	> 10
Calu-3 [13]	1.3	–
HepG2 [10]	–	> 10
HepG2 [14]	0.5	–
U2OS [15]	0	–
U2OS [18]	–	> 10
Vero E6 [11]	–	> 10
Vero E6 [16]	2	–

COc1cc2c(cc1OC)CN(CCc1ccc(NC(=O)c3cc(OC)c(OC)cc3NC(=O)c3cnc4ccccc4c3)cc1)CC2 [tariquidar]
cell viability [%]
Conditions	Caco-2 [2]	Calu-3 [3]	HepG2 [4]	U2OS [5]	Vero E6 [6]
1 nM	89.2	93.5	102	94.9	105
10 nM	94.2	94.6	90.9	100	94.5
100 nM	99.8	84	108	97.2	96.8
1000 nM	95.3	101	93.5	103	96.4
10000 nM	108	103	105	103	107

Conditions	drug sensitivity score	relative viability EC50 [µM]
Caco-2 [12]	0	–
Caco-2 [17]	–	> 10
Calu-3 [9]	–	> 10
Calu-3 [13]	0	–
HepG2 [10]	–	> 10
HepG2 [14]	0	–
U2OS [15]	0	–
U2OS [18]	–	> 10
Vero E6 [11]	–	> 10
Vero E6 [16]	0	–

CC(C)(C)c1ccc(C(O)CCCN2CCC(C(O)(c3ccccc3)c3ccccc3)CC2)cc1 (stereo not given) [terfenadine]
cell viability [%]
Conditions	Caco-2 [2]	Calu-3 [3]	HepG2 [4]	U2OS [5]	Vero E6 [6]
1 nM	77.3	97.6	108	98.1	107
10 nM	100	115	117	101	97.3
100 nM	76.3	97.3	103	96.5	109
1000 nM	101	104	96.9	99.7	101
10000 nM	80.2	106	99.8	97.8	100

Conditions	drug sensitivity score	relative viability EC50 [µM]
Caco-2 [12]	2.4	–
Caco-2 [17]	–	> 10
Calu-3 [9]	–	> 10
Calu-3 [13]	0	–
HepG2 [10]	–	> 10
HepG2 [14]	0	–
U2OS [15]	0	–
U2OS [18]	–	> 10
Vero E6 [11]	–	> 10
Vero E6 [16]	0	–
